In test [1] the test system is HeLa cells. Kind of test: Uptake of maleimide conjugates by flow cytometry. Conditions: 10 μM, 10 minutes. (In general: In flow cytometry, cells or beads pass a laser one at a time.)
Experimental: (FIG. 4A) Delivery of FL-maleimide to HeLa cells by click-coupling to thiol-initiated HexPhos oligomer 8. Maleimide control and HexPhos8 conjugate (11 and 12 respectively) were formed by reaction of 10 with the corresponding thiol for 2 hours at room temperature in PBS. The resulting compounds were exposed to HeLa cells at 10 μM final concentration for 10 minutes before determining uptake by flow cytometry. Data shown is the average fluorescence of 10,000 events measured.
To explore this strategy, deprotected thiol-initiated HexPhos 8-mer (7) was mixed with fluorescein (FL) maleimide (10) in PBS at room temperature for 2 hours to effect a Michael addition and uptake of the resulting conjugate was determined by flow cytometry (FIG. 4, panel A).
HeLa cells were plated at 40,000 cells/well in 24-well plates and incubated at 37° C. for 12-24 hours to adhere. Before treatment, a 1:1 molar ratio of thiol-initiated HexPhos oligomer (7) and FL-maleimide (10, Molecular Probes) was incubated for 2 hours in PBS (pH 7.4) at a final concentration of 4 mM. […] After removal of the supernatant, cells were resuspended in 125 μL of PBS and transferred to FACS tubes and read on a flow cytometry analyzer for the presence of fluorescein. Results were analyzed by FlowJo software. Data presented is the mean fluorescence from 10,000 cells analyzed.
For test [2], the system named is HeLa cells. Conditions: without attachment to a transporter, previously shown; cited from earlier work.
For test [3], the system named is OVCA-429T (resistant) ovarian cancer cells. Description: MTT toxicity assay of PTX and PTX-HexPhos conjugate. The format is cell-based, human. To be noted: for Resistance Factor: ratio of EC50 in OVCA-429T and OVCA-429 cells.
Experimental: The in vitro efficacy of PTX-HexPhos conjugate 16 was compared to free PTX in both wild-type and PTX-resistant ovarian cancer cells engineered to have high levels of Pgp up-regulation. OVCA-429 (wild-type) and OVCA-429T (resistant) cells were treated with free PTX (14) or the HexPhos conjugate 16 for 20 minutes in PBS, then washed and incubated for 3 days. After this time, cellular viability was assessed using a standard MTT assay to generate an EC50 value (the concentration at which overall cellular viability was half that of untreated cells) for each condition. […] The efficacy of these compounds can be expressed in terms of a “resistance factor” for free PTX and the HexPhos-paclitaxel conjugate 16, defined as the EC50 in resistant cells/the EC50 in wild-type cells.
MTT Toxicity Assays. The cytotoxicity of HexPhos oligomers, PTX alone, and PTX-HexPhos conjugate (16) were assessed by a standard MTT percent viability assay. Adherent cells (HeLa for oligomers alone, OVCA-429 or OVCA-429T for PTX and PTX-HexPhos conjugate) were plated at 5,000 cells/well in 96 well plates and allowed to incubate at 37° C. for 12-24 hours to adhere. Cells were washed with serum-free DMEM prior to treatment. In a second 96-well plate, compounds were serially diluted over a range of 200 μM to 400 nM, with two-fold dilutions between each well. For PTX conditions, a range of 20 μM to 40 nM was used. Each compound was tested in triplicate. […] Second plate was transferred to the plate containing cells, and incubated at 37° C. for 10 minutes, followed washing and replacement with 150 μL fresh serum-containing DMEM. Cells were incubated for an additional 72 hours at 37° C., after which time cellular viability was assayed by adding μ10 L of 3-(4,5-dimethylthiazol-2-yl)-2,5-diphenyltetrazolium bromide (MTT) solution (15 mg in 3 mL DMEM). Incubated for 2 hours at 37° C. […] Read absorbance on a plate reader at 570 and 690 nm. Subtracted absorbance at 570 from absorbance at 690 and normalized to wells with no cells as a minimum, and untreated cells as a maximum to calculate % viability.
In test [4] the test system is OVCA-429 (wild-type) ovarian cancer cells. The description is as above. The format is cell-based, human. To be noted: wash, 72 hours drug-free media, concentrations based on paclitaxel content.
Experimental: OVCA-429 (wild-type) and OVCA-429T (resistant) cells were treated with free PTX (14) or the HexPhos conjugate 16 for 20 minutes in PBS, then washed and incubated for 3 days. After this time, cellular viability was assessed using a standard MTT assay to generate an EC50 value (the concentration at which overall cellular viability was half that of untreated cells) for each condition. […] The efficacy of these compounds can be expressed in terms of a “resistance factor” for free PTX and the HexPhos-paclitaxel conjugate 16, defined as the EC50 in resistant cells/the EC50 in wild-type cells.
MTT Toxicity Assays. The cytotoxicity of HexPhos oligomers, PTX alone, and PTX-HexPhos conjugate (16) were assessed by a standard MTT percent viability assay. Adherent cells (HeLa for oligomers alone, OVCA-429 or OVCA-429T for PTX and PTX-HexPhos conjugate) were plated at 5,000 cells/well in 96 well plates and allowed to incubate at 37° C. for 12-24 hours to adhere. Cells were washed with serum-free DMEM prior to treatment. In a second 96-well plate, compounds were serially diluted over a range of 200 μM to 400 nM, with two-fold dilutions between each well. […] Read absorbance on a plate reader at 570 and 690 nm. Subtracted absorbance at 570 from absorbance at 690 and normalized to wells with no cells as a minimum, and untreated cells as a maximum to calculate % viability.

On to `O=C1OC2(c3ccc(O)cc3Oc3cc(O)ccc32)c2ccc(N3C(=O)C=CC3=O)cc21` [Compound 10, fluorescein (FL) maleimide], for which, in test [1], the “FL fluorescence of cells treated with controls” value is “little FL fluorescence”.
As for `CN(C)c1cccc2c(S(=O)(=O)NCCO)cccc12` [Compound 4, 5-(dimethylamino)-N-(2-hydroxyethyl)naphthalene-1-sulfonamide], in test [2], the “cell entry of probe alone” value is recorded as “not to enter cells”.
The term EC50 denotes the midpoint of the concentration-response curve. Read a low EC50 as greater potency. In the case of `CC(=O)O[C@H]1C(=O)[C@@]2(C)[C@H]([C@H](OC(=O)c3ccccc3)[C@]3(O)C[C@H](OC(=O)[C@H](O)[C@@H](NC(=O)c4ccccc4)c4ccccc4)C(C)=C1C3(C)C)[C@]1(OC(C)=O)CO[C@@H]1C[C@@H]2O` [PTX Alone (14), paclitaxel], the EC50 in test [3] (Homo sapiens, treated 20 minutes, wash, 72 hours drug-free media, MTT, assay limit 20 μM) is over 20 µM; in test [4] (Homo sapiens, OVCA429, treated 20 minutes), 0.051 ± 0.037 µM. The “Resistance Factor” value in test [3] is over 400; in test [3] (listed as 14), at least 400. Besides, the “EC50 (μM) OVCA-429 (Wild-type)” value in test [4] (treated 20 minutes) was “highly cytotoxic”.
